Test results from patent US10874646B2, “Epothilone analogs, methods of synthesis, methods of treatment, and drug conjugates thereof” (WILLIAM MARSH RICE UNIVERSITY, priority 2015, dated 2020).

Legend:
MCF-7 = assay: Cytotoxicity, standard NCI assay with sulforhodamine B, 96 h; conditions: Homo sapiens, MCF7, 96 h, read-out: cytotoxicity (GI50, nM ± SD) MCF-7
tubulin = assay: Induction/enhancement of tubulin assembly (Lin, et al., 1996); format: biochemical; conditions: 10 μM tubulin, 0.4M monosodium glutamate, 30 min at room temperature; Table 2; read-out: induction of tubulin assembly (EC50, μM ± SD)
[1] = system: NCI-60 human cancer cell line panel; assay: NCI-60 initial one dose test; format: cell-based; conditions: 10 μM
From the text: (§1) Biological evaluation. The synthesized epothilone analogues were submitted to the NCI for testing against the NCI-60 human cancer cell line panel (Shoemaker, 2006).

OVCAR-8 = assay: Cytotoxicity, standard NCI assay with sulforhodamine B, 96 h; conditions: Homo sapiens, OVCAR-8, 96 h, read-out: cytotoxicity (GI50, nM ± SD) OVCAR-8
LOX IMVI = assay: NCI-60 human cancer cell line panel, five dose screen; format: cell-based; conditions: NCI-60 five dose screen
From the text: as §1

U251 = assay: as above; format: cell-based; conditions: U-251, NCI-60 five dose screen
From the text: as §1

CCRF-CEM = assay: as above; format: cell-based; conditions: NCI-60 five dose screen
From the text: as §1

HT29 = assay: as above; format: cell-based; conditions: HT-29, NCI-60 five dose screen
From the text: as §1

HOP-92 = assay: as above; format: cell-based; conditions: NCI-60 five dose screen, read-out: GI50
From the text: as §1

COLO 205 = assay: as above; format: cell-based; conditions: NCI-60 five dose screen
From the text: as §1

SK-MEL-5 = assay: as above; format: cell-based; conditions: NCI-60 five dose screen
From the text: as §1

HS 578T = assay: as above; format: cell-based; conditions: NCI-60 five dose screen
From the text: as §1

MOLT-4 = assay: as above; format: cell-based; conditions: NCI-60 five dose screen
From the text: as §1

A498 = assay: as above; format: cell-based; conditions: NCI-60 five dose screen
From the text: as §1

NCI-H460 = assay: as above; format: cell-based; conditions: NCI-60 five dose screen
From the text: as §1

OVCAR-3 = assay: as above; format: cell-based; conditions: NCI-60 five dose screen
From the text: as §1

PC-3 = assay: as above; format: cell-based; conditions: NCI-60 five dose screen
From the text: as §1

HL-60(TB) = assay: as above; format: cell-based; conditions: NCI-60 five dose screen
From the text: as §1

SR = assay: as above; format: cell-based; conditions: NCI-60 five dose screen
From the text: as §1

NCI-H23 = assay: as above; format: cell-based; conditions: NCI-60 five dose screen
From the text: as §1

A549/ATCC = assay: as above; format: cell-based; conditions: NCI-60 five dose screen
From the text: as §1

MDA-MB-435 = assay: as above; format: cell-based; conditions: NCI-60 five dose screen
From the text: as §1

HCT-116 = assay: as above; format: cell-based; conditions: NCI-60 five dose screen
From the text: as §1

MDA-MB-468 = assay: as above; format: cell-based; conditions: NCI-60 five dose screen
From the text: as §1

HCT-15 = assay: as above; format: cell-based; conditions: NCI-60 five dose screen
From the text: as §1

RXF 393 = assay: as above; format: cell-based; conditions: NCI-60 five dose screen
From the text: as §1

SF-539 = assay: as above; format: cell-based; conditions: NCI-60 five dose screen
From the text: as §1

KM12 = assay: as above; format: cell-based; conditions: NCI-60 five dose screen
From the text: as §1

SNB-75 = assay: as above; format: cell-based; conditions: NCI-60 five dose screen
From the text: as §1

M14 = assay: as above; format: cell-based; conditions: NCI-60 five dose screen
From the text: as §1

K-562 = assay: as above; format: cell-based; conditions: K562, NCI-60 five dose screen
From the text: as §1

SW-620 = assay: as above; format: cell-based; conditions: NCI-60 five dose screen
From the text: as §1

MCF7 = assay: as above; format: cell-based; conditions: NCI-60 five dose screen
From the text: as §1

RPMI-8226 = assay: as above; format: cell-based; conditions: NCI-60 five dose screen
From the text: as §1

Row | Compound | GI50 (MCF-7) | EC50 (tubulin) | activity in initial one dose test [1] | GI50 (OVCAR-8) | GI50 (LOX IMVI) | GI50 (U251) | GI50 (CCRF-CEM) | GI50 (HT29) | GI50 (HOP-92) | GI50 (COLO 205) | GI50 (SK-MEL-5) | GI50 (HS 578T) | GI50 (MOLT-4) | GI50 (A498) | GI50 (NCI-H460) | GI50 (OVCAR-3) | GI50 (PC-3) | GI50 (HL-60(TB)) | GI50 (SR) | GI50 (NCI-H23) | also measured
1 | C/C(=C\c1cc(C(F)(F)F)nn1CCNC(=O)OC(C)(C)C)[C@@H]1C[C@@H]2O[C@]2(C)CCC[C@H](C)[C@H](O)[C@@H](C)C(=O)C(C)(C)[C@@H](O)CC(=O)O1 [Compound 6] | 4400 nM | > 40 µM | did not exhibit significant activity | 1200 nM |  |  |  |  |  |  |  |  |  |  |  |  |  |  |  |  | 
2 | C/C(=C\c1cc(C(F)(F)F)nn1CCNC(=O)OCC[Si](C)(C)C)[C@@H]1C[C@@H]2O[C@]2(C)CCC[C@H](C)[C@H](O)[C@@H](C)C(=O)C(C)(C)[C@@H](O)CC(=O)O1 [Compound 7] | 1800 nM | > 40 µM | did not exhibit significant activity | 1300 nM |  |  |  |  |  |  |  |  |  |  |  |  |  |  |  |  | 
3 | CSc1cc(/C=C(\C)[C@@H]2C[C@@H]3O[C@]3(C)CCC[C@H](C)[C@H](O)[C@@H](C)C(=O)C(C)(C)[C@@H](O)CC(=O)O2)n(CCNC(=O)OC(C)(C)C)n1 [Compound 5] | 1600 nM | > 40 µM | did not exhibit significant activity | 900 nM |  |  |  |  |  |  |  |  |  |  |  |  |  |  |  |  | 
4 | C/C(=C\c1ccn(-c2ccc(N)c(F)c2)n1)[C@@H]1C[C@@H]2O[C@]2(C)CCC[C@H](C)[C@H](O)[C@@H](C)C(=O)C(C)(C)[C@@H](O)CC(=O)O1 [Compound 12] | 2.5 nM | 7.8 ± 1 µM |  | 1.8 ± 0.4 nM | < 5 nM | < 5 nM | 6.09 nM | < 5 nM | < 5 nM | < 5 nM | < 5 nM | 5.51 nM | < 5 nM | < 5 nM | < 5 nM | < 5 nM | 9.75 nM | < 5 nM | < 5 nM | 5.72 nM | GI50 (A549/ATCC): 6.05 nM; GI50 (MDA-MB-435): < 5 nM; GI50 (HCT-116): < 5 nM; GI50 (MDA-MB-468): 7.22 nM; GI50 (HCT-15): < 5 nM; GI50 (RXF 393): 9.39 nM; GI50 (SF-539): 9.41 nM; GI50 (KM12): < 5 nM; GI50 (SNB-75): < 5 nM; GI50 (M14): < 5 nM; GI50 (K-562): < 5 nM; GI50 (SW-620): < 5 nM; GI50 (MCF7): < 5 nM; GI50 (RPMI-8226): < 5 nM
5 | C/C(=C\c1ccn(-c2ccc(N)c(C(F)(F)F)c2)n1)[C@@H]1C[C@@H]2O[C@]2(C)CCC[C@H](C)[C@H](O)[C@@H](C)C(=O)C(C)(C)[C@@H](O)CC(=O)O1 [Compound 11] | 3 ± 1 nM | 2.5 ± 0.5 µM |  | 2.5 ± 0.4 nM | 10.3 nM | 14.6 nM | 12.3 nM | 5.74 nM | 16.1 nM | 8.48 nM | 10.1 nM | 7.1 nM | 14.2 nM | 11.3 nM | 8.73 nM | 10.2 nM | 12.7 nM | 7.36 nM | 7.29 nM | 18.3 nM | GI50 (A549/ATCC): 13.4 nM; GI50 (MDA-MB-435): < 3.25 nM; GI50 (HCT-116): 4.82 nM; GI50 (MDA-MB-468): 10.6 nM; GI50 (HCT-15): 11 nM; GI50 (RXF 393): 14 nM; GI50 (SF-539): 9.55 nM; GI50 (KM12): 9.16 nM; GI50 (SNB-75): 5.75 nM; GI50 (M14): 4.88 nM; GI50 (K-562): 10.2 nM; GI50 (SW-620): 6.23 nM; GI50 (MCF7): < 3.25 nM; GI50 (RPMI-8226): 9.98 nM
